“And” between values parts separate entries of the source, which are not always exact repeats. Identical values can stand only once.
Test system: 485176-168-R4-J1-PDC spheroids with HUVEC/MSC, viability
Test: Anticancer human tumor 485176-168-R4-J1-PDC patient-derived pancreatic adenocarcinoma cell line growth inhibition [GQUAD]
Conditions: for viability, T/C: stronger effect = lower value; active = viability on the fitted dose curve at most 10% of control; inactive = the rest
From the text: DNA G-quadruplex Stabilizer Agents in Combinations in Complex Spheroids
A high-throughput screen of multi-cell type tumor spheroids was designed to identify active combinations of DNA G-quadruplex stabilizer agents and targeted small molecules. Complex spheroids include a stromal component modeled by human endothelial cells (HUVEC) and fibroblasts modeled by human mesenchymal stem cells (MSCs). The concentration ranges selected for each drug and investigational agent were based upon clinically achievable concentrations if the clinical Cmax of the agent was known.
Compounds. The drugs and investigational agents: pidnarulex (CX-5461; NSC782164), APTO-253 (NSC789042), BRACO-19 (NSC847499), peposertib (NSC802822), ceralasertib (NSC780249), elimusertib (NSC800525), camonsertib (NSC841442), AZD-1390 (NSC803789), olaparib (NSC753686), talazoparib (NSC767125), ART-558 (NSC835418), sotorasib (NSC818433), MRTX-1133 (NSC836407), SN-38 (NSC673596), topotecan (NSC609699), etoposide (NSC141540), doxorubicin (NSC123127), gemcitabine (NSC613327), 5-fluorouracil (NSC19893), paclitaxel (NSC125973), vemurafenib (NSC761431), panobinostat (NSC761190), R-306465 (JNJ-16241199; NSC773264), adavosertib (NSC754352), TP-3654 (NSC805149), carboplatin (NSC241240), KSQ-4279 (NSC840948), and staurosporine (NSC755774) were obtained from the National Cancer Institute (NCI) Developmental Therapeutics Program Chemical Repository (34). The FDA-approved anticancer drug set is available from the NCI Developmental Therapeutics Program. […] The stock solutions were prepared in dimethyl sulfoxide (DMSO, Sigma-Aldrich, St. Louis, MO, cat. D2650) at 800-fold the tested concentration and stored at -70 degrees C prior to their use. All drugs and investigational agents were tested over a range starting from a high concentration at or near the clinical Cmax and decreasing in half-log increments. If the clinical Cmax for an agent had not been determined, the highest concentration tested was 10 microM.
2.3 Cell Culture. All cells were maintained in an incubator at 37 degrees C and 5% CO2 with 95% humidity. The PDC lines were cultured according to standard operating procedures established by the NCI PDMR. All PDCs were thawed and cultured in Matrigel-coated flasks prepared with a working solution of 1X Ham's F-12 nutrient mix, without supplementation (Invitrogen, cat. 11765054), 100 U/mL penicillin-streptomycin (Invitrogen, cat. 15140122), and 2.5% Matrigel (Corning Inc., cat. 354248) for the first three passages. The 857933-349-R-J2-PDC line was cultured in 6C/Colon 1B media, which includes advanced DMEM/F-12 (Thermo Fisher Scientific, cat. 12634028), 10 mM HEPES (Thermo Fisher Scientific, cat. 15630080), 1X GlutaMAX supplement (Thermo Fisher Scientific, cat. 35050061), 0.1 mg/mL primocin (InvivoGen, cat. ant-pm-2), 10% defined fetal bovine serum, heat inactivated (HyClone Laboratories Inc., cat. SH30070.03HI), 50% L-WRN conditioned media (ATCC, cat. CRL-3276), 1.25 mM N-Acetyl-L-cysteine (Sigma-Aldrich, cat. A9165), 10 mM nicotinamide (Sigma-Aldrich, cat. N0636), 1X B-27 supplement (Thermo Fisher Scientific, cat. 17504044), 1X N-2 supplement (Thermo Fisher Scientific, cat. 17502048), 10 microM Y-27632 dihydrochloride (Tocris Bioscience, cat. 1254), and 50 ng/mL human EGF recombinant protein (Thermo Fisher Scientific, cat. PHG0311). The 485176-168-R4-J1-PDC line was cultured in Panc media, which includes all 6C/Colon 1B media components plus 100 ng/mL human FGF-10 (Thermo Fisher Scientific, cat. 100-26), 500 nM SB-431542 (Selleckchem, cat. S1067), and gastrin (Tocris, cat. 3006).
[…]

[1] = curve of first compound, second compound 0.0316 µM
[2] = curve of first compound, second compound 0.1 µM
[3] = curve of first compound, second compound 0.316 µM
[4] = curve of first compound, second compound 1 µM
[5] = curve of first compound, second compound 3.16 µM
[6] = curve of first compound, second compound 10 µM
[7] = second compound 0.0316 µM, first compound 0.0316 µM
[8] = second compound 0.0316 µM, first compound 0.316 µM
[9] = second compound 0.1 µM, first compound 0.0316 µM
[10] = second compound 0.1 µM, first compound 0.316 µM
[11] = second compound 0.316 µM, first compound 0.0316 µM
[12] = second compound 0.316 µM, first compound 0.316 µM
[13] = second compound 1 µM, first compound 0.0316 µM
[14] = second compound 1 µM, first compound 0.316 µM
[15] = second compound 3.16 µM, first compound 0.0316 µM
[16] = second compound 3.16 µM, first compound 0.316 µM
[17] = second compound 10 µM, first compound 0.0316 µM
[18] = second compound 10 µM, first compound 0.316 µM
[19] = compound alone, run of 03/18/2024
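Note: spheroids exposed to compounds for seven days before readout.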
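Throughout, for viability, T/C: percent viability relative to DMSO vehicle control wells as 100%.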

CC[C@@]1(O)C(=O)OCc2c1cc1n(c2=O)Cc2cc3c(CN(C)C)c(O)ccc3nc2-1 + Cc1cnc(CNC(=O)c2c(=O)c3ccc(N4CCCN(C)CC4)nc3n3c2sc2ccccc23)cn1
inactive: viability, T/C (second compound 0.0316 µM, first compound 0.000999 µM) 94.4% | viability, T/C (second compound 0.0316 µM, first compound 0.00316 µM) 84.9% | viability, T/C (second compound 0.0316 µM, first compound 0.00999 µM) 87.5% | viability, T/C [7] 70.3% | viability, T/C (second compound 0.0316 µM, first compound 0.0999 µM) 52.8% | viability, T/C [8] 29.3% | viability, T/C (second compound 0.1 µM, first compound 0.000999 µM) 75.8% | viability, T/C (second compound 0.1 µM, first compound 0.00316 µM) 72.1% | viability, T/C (second compound 0.1 µM, first compound 0.00999 µM) 88.9% | viability, T/C [9] 60.9% | viability, T/C (second compound 0.1 µM, first compound 0.0999 µM) 44.8% | viability, T/C [10] 37.1% | viability, T/C (second compound 0.316 µM, first compound 0.000999 µM) 69.3% | viability, T/C (second compound 0.316 µM, first compound 0.00316 µM) 62.8% | viability, T/C (second compound 0.316 µM, first compound 0.00999 µM) 64% | viability, T/C [11] 52.4% | viability, T/C (second compound 0.316 µM, first compound 0.0999 µM) 41.8% | viability, T/C [12] 32.2% | viability, T/C (second compound 1 µM, first compound 0.000999 µM) 47.8% | viability, T/C (second compound 1 µM, first compound 0.00316 µM) 55.1% | viability, T/C (second compound 1 µM, first compound 0.00999 µM) 50.9% | viability, T/C [13] 42.4% | viability, T/C (second compound 1 µM, first compound 0.0999 µM) 35.9% | viability, T/C [14] 33.5% | viability, T/C (second compound 3.16 µM, first compound 0.000999 µM) 49.5% | viability, T/C (second compound 3.16 µM, first compound 0.00316 µM) 49.4% | viability, T/C (second compound 3.16 µM, first compound 0.00999 µM) 39.8% | viability, T/C [15] 41.2% | viability, T/C (second compound 3.16 µM, first compound 0.0999 µM) 34.4% | viability, T/C [16] 30.8% | viability, T/C (second compound 10 µM, first compound 0.000999 µM) 42.7% | viability, T/C (second compound 10 µM, first compound 0.00316 µM) 44.5% | viability, T/C (second compound 10 µM, first compound 0.00999 µM) 41.3% | viability, T/C [17] 36.4% | viability, T/C (second compound 10 µM, first compound 0.0999 µM) 36.3% | viability, T/C [18] 27.5%
59.2 nM: IC50 [2]
1.18 nM: IC50 [5]
43.4 nM: IC50 [3]
113 nM: IC50 [1]
10.9 nM: IC50 [4]
< 0.999 nM: IC50 [6]

O=c1[nH]cc(F)c(=O)[nH]1 + CN(C)c1ccc(Nc2c3ccc(NC(=O)CCN4CCCC4)cc3nc3cc(NC(=O)CCN4CCCC4)ccc23)cc1
> 10000 nM: IC50 [1] | IC50 [3] | IC50 [4] | IC50 [5]
inactive: viability, T/C [7] 100% | viability, T/C (second compound 0.0316 µM, first compound 0.1 µM) 105% | viability, T/C [8] 78.8% | viability, T/C (second compound 0.0316 µM, first compound 1 µM) 61.8% | viability, T/C (second compound 0.0316 µM, first compound 3.16 µM) 53.6% | viability, T/C (second compound 0.0316 µM, first compound 10 µM) 53.6% | viability, T/C [9] 102% | viability, T/C (second compound 0.1 µM, first compound 0.1 µM) 87.7% | viability, T/C [10] 88.8% | viability, T/C (second compound 0.1 µM, first compound 1 µM) 56.2% | viability, T/C (second compound 0.1 µM, first compound 3.16 µM) 46.3% | viability, T/C (second compound 0.1 µM, first compound 10 µM) 51% | viability, T/C [11] 97.3% | viability, T/C (second compound 0.316 µM, first compound 0.1 µM) 91.5% | viability, T/C [12] 83.3% | viability, T/C (second compound 0.316 µM, first compound 1 µM) 52% | viability, T/C (second compound 0.316 µM, first compound 3.16 µM) 66.1% | viability, T/C (second compound 0.316 µM, first compound 10 µM) 57.2% | viability, T/C [13] 94.4% | viability, T/C (second compound 1 µM, first compound 0.1 µM) 106% | viability, T/C [14] 71.4% | viability, T/C (second compound 1 µM, first compound 1 µM) 56.1% | viability, T/C (second compound 1 µM, first compound 3.16 µM) 52% | viability, T/C (second compound 1 µM, first compound 10 µM) 53.2% | viability, T/C [15] 90.8% | viability, T/C (second compound 3.16 µM, first compound 0.1 µM) 94.1% | viability, T/C [16] 73.9% | viability, T/C (second compound 3.16 µM, first compound 1 µM) 59.6% | viability, T/C (second compound 3.16 µM, first compound 3.16 µM) 61.8% | viability, T/C (second compound 3.16 µM, first compound 10 µM) 47.2% | viability, T/C [17] 84.9% | viability, T/C (second compound 10 µM, first compound 0.1 µM) 80.2% | viability, T/C [18] 59.9% | viability, T/C (second compound 10 µM, first compound 1 µM) 51.4% | viability, T/C (second compound 10 µM, first compound 3.16 µM) 46.4% | viability, T/C (second compound 10 µM, first compound 10 µM) 45.5%
932 nM: IC50 [6]
2630 nM: IC50 [2]

Cc1[nH]c2ccc(F)cc2c1-c1nc2c3cccnc3c3ncccc3c2[nH]1
> 10000 nM: IC50 [19] | IC50 (compound alone, run of 03/26/2024)
inactive: viability, T/C (compound 0.1 µM) 101% [middle of 12 runs] | viability, T/C (compound 0.316 µM) 97.9% [middle of 12 runs] | viability, T/C (compound 1 µM) 99.5% [middle of 12 runs] | viability, T/C (compound 10 µM) 78.8% [middle of 12 runs]

Cc1cnc(CNC(=O)c2c(=O)c3ccc(N4CCCN(C)CC4)nc3n3c2sc2ccccc23)cn1
1.17 µM [middle of 10 runs]: IC50 [19]
inactive: viability, T/C (compound 0.0316 µM) 90.3% [middle of 12 runs] | viability, T/C (compound 0.1 µM) 78.8% [middle of 12 runs] | viability, T/C (compound 0.316 µM) 64.4% [middle of 12 runs] | viability, T/C (compound 1 µM) 55% [middle of 12 runs] | viability, T/C (compound 3.16 µM) 39.6% [middle of 12 runs] | viability, T/C (compound 10 µM) 36.6% [middle of 12 runs]

Cc1cccc(N(C)C(=O)C2C(O)CCN2c2nc(C)cc(C(F)(F)F)c2C#N)c1 (stereo not drawn)
inactive: viability, T/C (compound 0.0316 µM) 103% and 99% and 105% | viability, T/C (compound 0.1 µM) 85.8% and 79.2% and 87.1% | viability, T/C (compound 0.316 µM) 84.3% and 101% and 97.6% | viability, T/C (compound 1 µM) 85.8% and 105% and 76.4% | viability, T/C (compound 3.16 µM) 97.7% and 103% and 97.5% | viability, T/C (compound 10 µM) 95.4% and 91.5% and 89.9%
> 10000 nM: IC50 (curve of compound)

CCc1c2c(nc3ccc(O)cc13)-c1cc3c(c(=O)n1C2)COC(=O)[C@]3(O)CC
active: viability, T/C (compound 0.316 µM) 5.64% and 4.31% and 3.94%
3.08 nM and 6.61 nM and 4.61 nM: IC50 (curve of compound)
inactive: viability, T/C (compound 0.000999 µM) 70.1% and 80.1% and 81.3% | viability, T/C (compound 0.00316 µM) 44.8% and 56.4% and 56% | viability, T/C (compound 0.00999 µM) 36% and 50.5% and 37.6% | viability, T/C (compound 0.0316 µM) 25.5% and 22.1% and 19.9% | viability, T/C (compound 0.0999 µM) 14.2% and 11.4% and 13.2%

COc1ccc([C@@H](O)c2cc(-c3ncnc4cc(N5CCOCC5)ccc34)c(F)cc2Cl)nn1
2720 nM and 4600 nM and 3810 nM: IC50 (curve of compound)
inactive: viability, T/C (compound 0.0316 µM) 89.1% and 113% and 89.2% | viability, T/C (compound 0.1 µM) 75.3% and 88.3% and 77.7% | viability, T/C (compound 0.316 µM) 87.5% and 97.3% and 96% | viability, T/C (compound 1 µM) 73.4% and 71.1% and 64.4% | viability, T/C (compound 3.16 µM) 46.6% and 64.8% and 57.1% | viability, T/C (compound 10 µM) 31.4% and 30% and 28.4%

From PubChem BioAssay AID2060509 (Molecular Pharmacology Branch, DTP, NCI, 2025)
